This is an account of results in a melting point compilation (Tetko et al.; mined from patent text by program, amines drawn as free bases though some values may be those of a salt).

Each structure is given as a SMILES string.

In general, melting point refers to the temperature, or range, at which the solid turns liquid. For the molecule `CC(=O)N(Nc1ccc(Cl)cc1F)c1c(C#N)cnc2cc(O)ccc12`, the melting point is 182 to 191 °C. As for `CCOC(=O)CN(c1ccc(N)cc1)S(=O)(=O)c1cccc2ccccc12`, the figure is 98 to 103 °C; as for `CC(C)(C)c1cc(CSCCC(=O)ON(Cc2ccccc2)Cc2ccccc2)cc(C(C)(C)C)c1O`, 84 to 86 °C; as for `CCOC(=O)COC1OCC[C@@H]1NC(=O)[C@H](Cc1ccccc1)NC(=O)OCc1ccccc1` (stereo partly specified), 103 to 106 °C.

On to `CC1(C(=O)O)COC2(CCCCCCC2)OC1`, for which the melting point was 120 to 122 °C. As for `CCOCN(C(=O)N(COCc1ccccc1)c1nc(OCC(F)(F)F)cc(OCC(F)(F)F)n1)c1ccc(C(F)(F)F)cc1`, the figure is 62 to 65 °C; as for `Cc1c(C(=O)N(C)Cc2ccc3c(Br)c(OCc4nnn[nH]4)ccc3c2)oc2ccccc12`, 164 to 166 °C. As for `CCCc1nc2c(N)nc3cc(F)ccc3c2s1`, the figure is 192 to 194 °C; as for `COC(=O)c1ccc2[nH]c(/C=C/c3ccc(OC)c(OC)c3)nc2c1`, 185 to 188 °C; as for `O=C(c1ccco1)c1cnn2c(-c3cccc(N4CCCC4=O)c3)ccnc12`, 210 to 211 °C.

Molecule `Cc1ccccc1Nc1nc2ccc(CC(=O)Nc3ccc(C4(CC(=O)O)CCCC4)cc3)cc2o1` gave a melting point of 123 to 126 °C.

On to `CC=CC=C[C@@H]1C[C@H](CC(=O)O)OC2(CCCCC2)O1` (relative stereo), for which the melting point is 144 to 146 °C.

For the molecule `Cc1nc2ccccc2n1-c1ccccn1`, the melting point is 121 to 123 °C. As for `CCn1nc(-c2ccc(Oc3nc4cccnc4n3C)cc2)c2nccnc21`, the figure is 161 to 162 °C; as for `CSc1c(S(N)(=O)=O)ccn1C`, 135 to 137 °C. As for `CC(C)C(=O)OC1c2nccnc2C(=O)N1c1ccc2ccc(Cl)nc2n1` (stereo unspecified), the figure is 260 to 262 °C. As for `CC(C)(O)Cn1c(CCC2(C)OCCO2)nc2c(N)nc3ccccc3c21`, the figure is 231 to 233 °C; as for `COc1ccc(-c2cc3c(O)ncnc3[nH]2)cc1`, above 300 °C. Molecule `Fc1cc(Cl)ccc1-c1ncnc(C(F)F)c1Cl` showed a melting point of 76 to 77 °C. As for `COc1ccc(Cn2c(=S)[nH]c(=S)c3[nH]cnc32)cc1OC1CCCC1`, the figure is 215 to 218 °C; as for `O=C(CSCCN1C(=O)c2ccccc2C1=O)c1ccc(F)cc1`, 124 to 126 °C. As for `CNCC[C@H](O)c1cccs1`, the figure is 68 to 70 °C; as for `COc1cccc(OC)c1-c1ccc(C[C@H](NC(=O)c2c(Cl)cc(-c3ccc[nH]3)cc2Cl)C(=O)O)cc1`, 250 °C. As for `CCCS(=O)(=O)Cc1cccc(-c2nc(=O)c3ccccc3s2)n1`, the figure is 177 to 179 °C; as for `O=C(Nc1ccc(C(F)(F)F)cc1)c1cccc(Oc2cccc(C(F)(F)F)c2)n1`, 130 to 132 °C; as for `CCC(OC)c1oc(C)cc(=O)c1OCc1ccccc1` (stereo unspecified), 63 to 65 °C. In turn, `CCOc1ccc(-c2ccc3c(c2)C=C(C(=O)O)CCO3)cc1` displayed a melting point of 269 to 271 °C.

On to `COC(=NC#N)NCc1ccc(-c2csc(N=C(N)N)n2)o1`, for which the melting point is 205 to 206 °C. As for `CS(=O)(=O)c1ccc(SC2SCC(O)C(O)C2O)cc1` (stereo unspecified), the figure is 169 to 172 °C. For the molecule `CCCCC1=NC(C)(C)C(=O)N1Cc1ccc(-c2ccccc2C(=O)OC(C)(C)C)cc1`, the melting point is 98 to 100 °C. For the molecule `CC1(C)CC(=O)C(SCC2CCCCC2)=C(O)C1`, the melting point lay within 67.5 to 69.5 °C. With `CCSCCOC(=O)C1=C(C)NC(C)=C(C(=O)OCC=Cc2ccccc2)C1c1cccc([N+](=O)[O-])c1` (stereo unspecified), the melting point was 142 to 144 °C. As for `COC1CCC(C2=C(Cl)C(=O)c3ccccc3C2=O)CC1` (stereo unspecified), the figure is 110 to 113 °C; as for `COc1cc(C(C)=O)ccc1OCCCCBr`, 52 to 54 °C. The molecule `CCCCNC(=O)C(O[Si](C)(C)C(C)(C)C)C(c1ccccc1)c1ccccc1` (stereo unspecified) displayed a melting point of 73 to 74 °C. As for `COc1ccc(N(Cc2cnn(Cc3ccc(C(F)(F)F)cc3)c2)C(=O)C2CCCc3c(O)cccc32)cn1` (stereo unspecified), the figure is 199 to 200 °C. As for `Cc1cccc2nc(C(F)(F)F)n(C3CCC(=O)NC3=O)c(=O)c12` (stereo unspecified), the figure is 308 to 310 °C; as for `CC(C)Cc1nc2ccc(OC(C)(C)C)cc2c(-c2ccccc2F)c1C#N`, 127 to 129 °C; as for `O=C(O)CCCCCOc1ccc(C2OC3C(CO)OC(n4cnc5c(Cl)ncnc54)C3O2)cc1` (stereo unspecified), 127 to 129 °C. With `CCOC(=O)c1c(-c2ccncc2)[nH]c(-c2ccncc2)c1-c1ccccc1`, the melting point lay within 99 to 100 °C. As for `CN1CCC(c2c[nH]c3ccc(C(=O)c4ccc(N(C)C)cc4)cc23)CC1`, the figure is 103 to 104 °C.

`Nc1cc(F)cc(F)c1NC(=S)Nc1c(Cl)cccc1Cl` displayed a melting point of 310 to 314 °C. As for `COc1cc2c(cc1-c1ccc(F)cc1C)NC(=O)CC(c1cccc(-n3ccnc3)c1)=N2`, the figure is 225 °C; as for `CCCCC(=O)N[C@@H]1CN2C(=O)N(c3cc(Cl)nc(Cl)c3)C(=O)[C@@]2(Cc2ccc(OC(F)(F)F)cc2)C1`, 66.8 °C. As for `Cc1cc2c(cc1-c1cccc(C=O)c1)C(C)(C)CCC2(C)C`, the figure is 104 to 105 °C; as for `CCOC(=O)c1ccc2c(c1)CCC(Cc1cnc(N)s1)C2` (stereo unspecified), 150 to 153 °C.

`CC(=O)NCCOC(=O)C(Oc1ccc(F)c(C(F)(F)F)c1)c1ccc(Cl)cc1` (stereo unspecified) yielded a melting point of 108 °C. As for `C=C[C@@H](C[C@H](O)[C@H](CC1CCCCC1)NC(=O)[C@H](Cc1c[nH]cn1)NC(=O)[C@@H](CC(=O)N1CCC(C(=O)O)CC1)Cc1ccccc1)C(C)C`, the figure is 169 °C; as for `COc1ccc2c(c1)C=C(C=O)CO2`, 49 to 50 °C. As for `CC(=O)NCC1CN(c2ccc(N3CCN(C(=O)COC(=O)c4cccnc4)CC3)c(F)c2)C(=O)O1` (stereo unspecified), the figure is 173 to 175 °C; as for `CN1CCC2(OCCO2)C2(CCCC2)C1=O`, 84 to 85 °C; as for `O=C(O)c1ccc([C@H]2CC[C@H](C3CCC4(CC3)OCCO4)CC2)cc1F`, 228 °C.

In turn, `CC(C)(C)CNC(=O)c1ccc(Br)c(C(=O)O)c1` gave a melting point of 176 to 179 °C. As for `Cc1[nH]cnc1CSCCNc1ncc(Cc2ccc(Cl)cc2)c(=O)[nH]1`, the figure is 204 to 206 °C; as for `CC(=O)OC1OCC[C@@H]1NC(=O)CCC(=O)Nc1ccc(Nc2ccccc2)cc1` (stereo partly specified), 191 to 192 °C. As for `COC(=O)c1cc2c3c(cc([N+](=O)[O-])c2[nH]1)N(C(=O)c1cc2cc(OC)c(OC)c(OC)c2[nH]1)CC3CCl` (stereo unspecified), the figure is 246 to 248 °C; as for `O=C(Nc1ccc(Cl)nc1)C1=NN(c2ccc(Cl)cc2)C(c2ccc(F)cc2)C1` (stereo unspecified), 191 to 193 °C; as for `COc1ccc(C(=O)Nc2nc(C(Cl)(Cl)Cl)ns2)cc1`, 172 °C. In turn, `CC(=CC(=O)Nc1ccccc1)Oc1ccccc1` returned a melting point of 145 °C. As for `Cc1ccc2c(n1)C(=O)N(c1cccc3ccccc13)C2=O`, the figure is 200 to 205 °C; as for `O=S(=O)(c1ccccc1)n1c(Cc2cc3ccccc3n2S(=O)(=O)c2ccccc2)cc2ccccc21`, 144 to 145 °C.

`CCC(=NO)c1cc(Br)c(O)c(CN)c1` came in with a melting point of 174 to 175 °C. As for `COC(=O)COc1ccc2cc3c(c(-c4ccc(OC)cc4)c2c1)CNC3=O`, the figure is 202 to 203 °C.

For `NC(=O)Nc1nc(CC(=O)Nc2cccc(C(F)(F)F)c2)cs1`, the melting point was 195 to 197 °C.

Molecule `CCOC(=O)c1cn(-c2nc(N)c(F)cc2F)c2c(Cl)c(NCC(O)COC3CNC3)c(F)cc2c1=O` (stereo unspecified) came in with a melting point of 148 to 152 °C.

For the molecule `COc1ncnc(OC)c1NC(=O)CCl`, the melting point fell in the range of 193 to 195 °C. As for `O=[N+]([O-])c1ccc2c(c1)S(=O)(=O)c1ccccc1-2`, the figure is 259 °C; as for `COCC(COC)Nc1c(C)nn2c(-c3ccc(Cl)cc3Cl)cccc12`, 86.9 to 90 °C. As for `Oc1cc(-c2ccc(Cl)cc2Cl)n[nH]1`, the figure is 198 °C; as for `CCCn1c(=O)c2nc(-c3ccc(/C=C/C(=O)O)cc3)[nH]c2n(Cc2ccccc2)c1=O`, above 300 °C; as for `CC1CCCC(C)N1Cc1ccc(COc2cccc3c2CN(C2CCC(=O)NC2=O)C3=O)cc1` (stereo unspecified), 205 to 207 °C. Consider `NCc1ccc2c(c1)ncn2-c1cccc(-c2cccnc2)c1`, for which the melting point fell in the range of 107 to 110 °C. As for `O=C1COc2cc(OCCCCl)ccc2N1`, the figure is 95 °C.

In turn, `CCCCC1N=c2ccc(OCC)c(C(=O)OCC)c2=NC1=O` (stereo unspecified) displayed a melting point of 168 to 169 °C. As for `COc1ccc(C#CCSc2ccc(OCC(=O)O)c(C)c2)cc1`, the figure is 143 to 144 °C; as for `Nc1ncnc2c1ncn2C1OC(C(O)C(=O)NC2CCCC2)C(O)C1O` (stereo unspecified), 155 to 157 °C. Consider `CC[C@H](C)[C@H](NC(C)=O)C(=O)N[C@H](C(=O)N[C@@H](CC1CCCCC1)[C@@H](O)[C@@H](O)CC(C)C)[C@@H](C)CC`, for which the melting point was in the range of 247 to 248 °C. As for `CCOC(=O)Cc1ccc(CCNS(=O)(=O)c2ccc(Cl)cc2)cc1`, the figure is 88 to 90 °C; as for `Cc1cc(Oc2ncc(C(F)(F)F)cc2Cl)nn1C(=O)OC(C)(C)C`, 90 to 92 °C; as for `CNC(=O)[C@H](Cc1ccc(OC(C)C)cc1)NC(=O)[C@@H](N)CC(C)C`, 148 to 160 °C. In the case of `CCCCN1CC2CN(S(=O)(=O)c3ccc(NC(=O)c4ccc(C#N)cc4)cc3)CC(C1)C2(C)C`, the melting point came out at 145 °C. Take `CC#CCOc1ccc(S(=O)(=O)N[C@@H](C(=O)NO)C2CCC(O)CC2)cc1` (stereo partly specified): the melting point lay in the range of 180 to 182 °C. As for `Cn1c(C#N)c(Br)n(-c2ccc(Cl)cc2)c1=O`, the figure is 185 °C.

Turning to `NS(=O)(=O)c1cc(CCNC(=O)/C=C/c2cccs2)ccc1-c1ccco1`, the melting point was in the range of 165 to 166 °C. As for `CC12CC(=O)C3C(CCC4CC5OC5CC43C)C1CCC2=O` (stereo unspecified), the figure is 166 to 167 °C; as for `CCCCCCSc1sc(-c2cc[nH]n2)c2c1C(=O)CC(C)(C)C2`, 134 to 137 °C.
